Source: US10647680B2, “Urea compound, preparation method therefor and medical use thereof” (Ancureall Pharmaceutical (Shanghai) Co., Ltd., priority 2016, dated 2020)

Columns and labels:
[1] = test system: MV4-11 (FLT3 ITD+/+ mutant type); assay: In vitro growth inhibition (GI50), MV4-11; type: cell-based, human; settings: Homo sapiens, MV4-11; Cell lines of leukemia; read-out: GI 50 MV4-11 FLT3 (ITD +/+)
[2] = test system: MOLM-13 (FLT3 ITD+/− mutant type); assay: In vitro growth inhibition (GI50), MOLM-13; type: cell-based, human; settings: Homo sapiens, MOLM-13; Cell lines of leukemia; read-out: GI 50 MOLM-13 FLT3 (ITD+/−)
[3] = test system: RS4; 11 (FLT3 wild type); assay: In vitro growth inhibition (GI50), RS4; 11; type: cell-based, human; settings: Homo sapiens, RS4-11; Cell lines of leukemia; read-out: GI 50 RS4: 11 FLT3 (WT)
[4] = test system: K562 (FLT3 negative expression, positive expression of BCR-ABL fusion protein); assay: In vitro growth inhibition (GI50), K562; type: cell-based; settings: Homo sapiens, Cell lines of leukemia, read-out: GI 50 K562 BCR-ABL
[5] = test system: RAMOS (positive expression of Brutons tyrosine protein kinase); assay: In vitro growth inhibition (GI50), RAMOS; type: cell-based; settings: Homo sapiens, Cell lines of leukemia, read-out: GI 50 Ramos BTK
[6] = test system: U937 (FLT3 wild-type); assay: In vitro growth inhibition (GI50), U937; type: cell-based; settings: Homo sapiens, U-937; Cell lines of leukemia; read-out: GI 50 U937 FLT 3(WT)
[7] = test system: Kasumi-1 (c-Kit N822K mutant type); assay: In vitro growth inhibition (GI50), Kasumi-1; type: cell-based; settings: Homo sapiens, Cell lines of leukemia, read-out: GI 50 Kasumi-1 Kit (N822K)
Summary of the method: (§1)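 After 3–5 days of treatment (top concentration 5,000 nM, serially diluted 2- or 10-fold to 0.01 nM, solvent ≤1%), viability was read by CCK8 at OD450. Growth rate was normalised to the time-zero and solvent-control wells, and GI50 was derived from the curve. Cultures in RPMI1640 + 10% FBS.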

[8] = test system: KG-1 (expressing FGFR1OP2-FGFR1 fusion protein); assay: In vitro growth inhibition (GI50), KG-1; type: cell-based; settings: Homo sapiens; Cell lines of leukemia; read-out: GI 50 KG-1 FGFR1OP 2-FGFR1
[9] = test system: HL-60 (FLT3 wild type); assay: In vitro growth inhibition (GI50), HL-60; type: cell-based; settings: Homo sapiens, Cell lines of leukemia, read-out: GI 50 HL60 FLT3 (WT)
Summary of the method: as §1

[10] = test system: OCI-AML3 (NPMc+ mutant type); assay: In vitro growth inhibition (GI50), OCI-AML3; type: cell-based; settings: Homo sapiens, OCI-AML-3; Cell lines of leukemia; read-out: GI 50 OCI- AML3 NPMc+

Row | Structure (SMILES) | GI50 [1] [nM] | GI50 [2] [nM] | GI50 [3] [nM] | GI50 [4] [nM] | GI50 [5] [nM] | GI50 [6] [nM] | GI50 [9] [nM] | GI50 [10] [nM] | GI50 [7] [nM] | GI50 [8] [nM]
1 | CC(C)(C)c1cc(NC(=O)Nc2ccc(-n3cnc4cccc(OCCN5CCOCC5)c43)cc2)no1 [Compound 30, 1-(5-tert-butyl-isoxazol-3-yl)-3-{4-[7-(2-morpholin-4-yl-ethoxyl)-benzimidazol-1-yl]-phenyl}-urea] | > 1000 | > 1000 | > 1000 | > 1000 | > 1000 | > 1000 | 100 to 1000 | > 1000 | > 1000 | > 1000
2 | CC(C)(C)c1cc(NC(=O)Nc2ccc(-n3ccc4cccnc43)cc2)no1 [Compound 49, 1-(5-tert-butyl-isoxazol-3-yl)-3-(4-pyrrolo[2,3-b]pyridin-1-yl-phenyl)-urea] | 100 to 1000 | 100 to 1000 | > 1000 | > 1000 | > 1000 | > 1000 | > 1000 | > 1000 | > 1000 | > 1000
3 | CC(C)(C)c1cc(NC(=O)Nc2ccc(-n3cnc4ccccc43)cc2)n(-c2ccc(OC(F)(F)F)cc2)n1 [Compound 107, 1-(4-benzimidazol-1-yl-phenyl)-3-[5-tert-butyl-2-(4-trifluoromethoxy-phenyl)-2H-pyrazol-3-yl]-urea] | 10 to 100 | 10 to 100 | > 1000 | > 1000 | > 1000 | > 1000 | > 1000 | > 1000 | > 1000 | > 1000
4 | CC(C)(C)c1cc(NC(=O)Nc2ccc(-n3cnc4ccccc43)cc2)on1 [Compound 133, 1-(4-benzimidazol-1-yl-phenyl)-3-(3-tert-butyl-isoxazol-5-yl)-urea] | 1 to 10 | 1 to 10 | > 1000 | > 1000 | > 1000 | > 1000 | > 1000 | > 1000 | > 1000 | > 1000
5 | CC(C)COc1ccc2c(c1)ncn2-c1ccc(NC(=O)Nc2cc(C(C)(C)C)n[nH]2)cc1 [Compound 76, 1-(5-tert-butyl-2H-pyrazol-3-yl)-3-[4-(5-isobutoxy-benzimidazol-1-yl)-phenyl]-urea] | 1 to 10 | 1 to 10 | > 1000 | > 1000 | > 1000 | > 1000 | > 1000 | > 1000 | > 1000 | > 1000
6 | CC(C)(C)c1cc(NC(=O)Nc2ccc(-n3cnc4ccccc43)c(Cl)c2)no1 [Compound 38, 1-(4-benzimidazol-1-yl-3-chloro-phenyl)-3-(5-tert-butyl-isoxazol-3-yl)-urea] | 100 to 1000 | 100 to 1000 | > 1000 | > 1000 | > 1000 | > 1000 | > 1000 | > 1000 | > 1000 | > 1000
7 | CC(C)(C)c1cc(NC(=O)Nc2ccc(-n3cnc4cc(OCCN5CCCCCC5)ccc43)cc2)no1 [Compound 18, 1-{4-[5-(2-azepan-1-yl-ethoxyl)-benzimidazol-1-yl]-phenyl}3-(5-tert-butyl-isoxazole-3-yl)-urea] | 1 to 10 | 1 to 10 | > 1000 | > 1000 | 100 to 1000 | > 1000 | 100 to 1000 | > 1000 | 100 to 1000 | 100 to 1000
8 | CNC(=O)c1cc(Oc2ccc3c(c2)ncn3-c2ccc(NC(=O)Nc3cc(C(C)(C)C)n[nH]3)cc2)ccn1 [Compound 96, 4-(1-{4-[3-(5-tert-butyl-2H-pyrazol-3-yl)-carbamido]-phenyl}-1H-benzimidazol-5-yloxy)-pyridin-2-carboxymethylamine] | 1 to 10 | 1 to 10 | > 1000 | > 1000 | > 1000 | > 1000 | > 1000 | > 1000 | > 1000 | > 1000

Now from value to molecule, other results behind:

Row | GI50 [1] [nM] | GI50 [2] [nM] | GI50 [3] [nM] | GI50 [4] [nM] | GI50 [5] [nM] | GI50 [6] [nM] | GI50 [9] [nM] | GI50 [10] [nM] | Structure (SMILES) | GI50 [7] [nM] | GI50 [8] [nM]
9 | 0.1 to 1 | 0.1 to 1 | > 1000 | > 1000 | > 1000 | > 1000 | > 1000 | > 1000 | CC(C)(C)c1cc(NC(=O)Nc2ccc(-n3cnc4cc(OCC5CCCCO5)ccc43)cc2)[nH]n1 (centres unmarked) [Compound 87, 1-(5-tert-butyl-2H-pyrazol-3-yl)-3-{4-[5-(tetrahydro-pyran-2-ylmethoxy)-benzimidazol-1-yl]-phenyl}-urea] | > 1000 | > 1000
10 | 1 to 10 | 1 to 10 | > 1000 | > 1000 | > 1000 | > 1000 | > 1000 | > 1000 | CC(C)(C)c1cc(NC(=O)Nc2ccc(-n3cnc4ccccc43)cc2)n(CCO)n1 [Compound 103, 1-(4-benzimidazol-1-yl-phenyl)-3-[5-tert-butyl-2-(2-hydroxy-ethyl)-2H-pyrazol-3-yl]-urea] | > 1000 | > 1000
11 | 0.1 to 1 | 0.1 to 1 | 10 to 100 | 100 to 1000 | 100 to 1000 | > 1000 | 100 to 1000 | > 1000 | CN1CCN(CCCOc2ccc3c(c2)ncn3-c2ccc(NC(=O)Nc3cc(C(C)(C)C)on3)cc2)CC1 [Compound 19, 1-(5-tert-butyl-isoxazol-3-yl)-3-(4-{5-[3-(4-methyl-piperazin-1-yl)-propoxyl]-benzimidazol-1-yl}-phenyl)-urea] | 100 to 1000 | 100 to 1000
12 | 1 to 10 | 1 to 10 | > 1000 | > 1000 | > 1000 | > 1000 | > 1000 | > 1000 | CC(C)(C)c1cc(NC(=O)Nc2ccc(-n3cnc4cc(C(F)(F)F)cnc43)cc2)no1 [Compound 52, 1-(5-tert-butyl-isoxazol-3-yl)-3-[4-(6-trifluoromethyl-imidazo[4,5-b]pyridin-3-yl)-phenyl]-urea] | > 1000 | > 1000
13 | 1 to 10 | 1 to 10 | > 1000 | > 1000 | > 1000 | > 1000 | > 1000 | > 1000 | CC(C)(C)c1nnc(NC(=O)Nc2ccc(-n3cnc4ccccc43)cc2)s1 [Compound 63, 1-(4-benzimidazol-1-yl-phenyl)-3-(5-tert-butyl-[1,3,4]thiadiazole-2-yl)-urea] | > 1000 | > 1000
14 | 0.1 to 1 | 0.1 to 1 | > 1000 | > 1000 | > 1000 | > 1000 | > 1000 | > 1000 | CC(C)(C)c1cc(NC(=O)Nc2ccc(-n3cnc4cccnc43)cc2)no1 [Compound 50, 1-(5-tert-butyl-isoxazol-3-yl)-3-(4-imidazo[4,5-b]pyridin-3-yl-phenyl)-urea] | > 1000 | > 1000
15 | 0.1 to 1 | 0.1 to 1 | > 1000 | > 1000 | > 1000 | > 1000 | > 1000 | > 1000 | CC(C)(C)c1cc(NC(=O)Nc2ccc(-n3cnc4cc(F)ccc43)cc2)no1 [Compound 22, 1-(5-tert-butyl-isoxazol-3-yl)-3-[4-(5-fluoro-benzimidazol-1-yl)-phenyl]-urea] | > 1000 | > 1000
16 | 0.1 to 1 | 0.1 to 1 | > 1000 | > 1000 | > 1000 | > 1000 | > 1000 | > 1000 | CC(C)(C)c1cc(NC(=O)Nc2ccc(-n3cnc4cc(OC(F)(F)F)ccc43)cc2)no1 [Compound 21, 1-(5-tert-butyl-isoxazol-3-yl)-3-[4-(5-trifluoromethoxy-benzimidazol-1-yl)-phenyl]-urea] | > 1000 | > 1000
17 | 0.1 to 1 | 0.1 to 1 | > 1000 | > 1000 | > 1000 | > 1000 | > 1000 | > 1000 | CC(C)(C)c1cc(NC(=O)Nc2ccc(-n3cnc4cc(OCCN5CCCCC5)ccc43)cc2)[nH]n1 [Compound 90, 1-(5-tert-butyl-2H-pyrazol-3-yl)-3-{4-[5-(2-piperidin-1-yl-ethoxyl)-benzimidazol-1-yl]-phenyl}-urea] | > 1000 | > 1000
